Measurements as given in PubChem BioAssay (NCI).
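In this assay, cells in 96-well plates receive the compound at five concentrations for 48 hours. Endpoints are linearly interpolated between the surrounding concentrations. TGI: concentration producing complete growth inhibition.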

Assays:
Test in all cases: NCI tumour cell line growth inhibition, 48 h
UACC-257 melanoma = test system: UACC-257 melanoma
MCF7 breast = test system: MCF7 breast
SN12C renal = test system: SN12C renal
HCC-2998 colon = test system: HCC-2998 colon
OVCAR-8 ovarian = test system: OVCAR-8 ovarian
BT-549 breast = test system: BT-549 breast
RXF 393 renal = test system: RXF 393 renal
ACHN renal = test system: ACHN renal
MDA-MB-231 breast = test system: MDA-MB-231 breast
MOLT-4 leukemia = test system: MOLT-4 leukemia
CAKI-1 renal = test system: CAKI-1 renal
OVCAR-5 ovarian = test system: OVCAR-5 ovarian
A549 NSCLC = test system: A549 NSCLC
HL-60(TB) leukemia = test system: HL-60(TB) leukemia
SF-539 CNS = test system: SF-539 CNS
SF-268 CNS = test system: SF-268 CNS
TK-10 renal = test system: TK-10 renal
NCI-H226 lung = test system: NCI-H226 lung
MALME-3M melanoma = test system: MALME-3M melanoma
786-0 renal = test system: 786-0 renal
SNB-75 CNS = test system: SNB-75 CNS
SW-620 colon = test system: SW-620 colon
M14 melanoma = test system: M14 melanoma
HS 578T breast = test system: HS 578T breast
UACC-62 melanoma = test system: UACC-62 melanoma
EKVX NSCLC = test system: EKVX NSCLC
DU-145 prostate = test system: DU-145 prostate
UO-31 renal = test system: UO-31 renal
MDA-MB-435 = test system: MDA-MB-435
NCI-H522 lung = test system: NCI-H522 lung
NCI-H23 lung = test system: NCI-H23 lung
NCI/ADR-RES ovarian = test system: NCI/ADR-RES ovarian
HCT-15 colon = test system: HCT-15 colon
OVCAR-3 ovarian = test system: OVCAR-3 ovarian
SNB-19 CNS = test system: SNB-19 CNS
SF-295 CNS = test system: SF-295 CNS
MDA-N = test system: MDA-N
SK-OV-3 ovarian = test system: SK-OV-3 ovarian
CCRF-CEM leukemia = test system: CCRF-CEM leukemia
PC-3 prostate = test system: PC-3 prostate
SK-MEL-28 melanoma = test system: SK-MEL-28 melanoma
RPMI-8226 leukemia = test system: RPMI-8226 leukemia
NCI-H460 lung = test system: NCI-H460 lung
U251 CNS = test system: U251 CNS
HCT-116 colon = test system: HCT-116 colon
COLO 205 colon = test system: COLO 205 colon
KM12 colon = test system: KM12 colon
IGROV1 ovarian = test system: IGROV1 ovarian
LOX IMVI melanoma = test system: LOX IMVI melanoma
T-47D breast = test system: T-47D breast
SR leukemia = test system: SR leukemia
K-562 leukemia = test system: K-562 leukemia
A498 renal = test system: A498 renal
OVCAR-4 ovarian = test system: OVCAR-4 ovarian
HT29 colon = test system: HT29 colon
SK-MEL-5 melanoma = test system: SK-MEL-5 melanoma
HOP-62 NSCLC = test system: HOP-62 NSCLC
HOP-92 NSCLC = test system: HOP-92 NSCLC
SK-MEL-2 melanoma = test system: SK-MEL-2 melanoma

C=CCc1c(Cl)nc(Cl)nc1Cl
TGI (UACC-257 melanoma): 1.9 µM
TGI (MCF7 breast): 0.668 µM
TGI (SN12C renal): 1.46 µM
TGI (HCC-2998 colon): 3.4 µM
TGI (OVCAR-8 ovarian): 1.32 µM
TGI (BT-549 breast): 0.641 µM
TGI (RXF 393 renal): 0.601 µM
TGI (ACHN renal): 1.2 µM
TGI (MDA-MB-231 breast): 1.82 µM
TGI (MOLT-4 leukemia): 0.0625 µM
TGI (CAKI-1 renal): 0.0367 µM
TGI (OVCAR-5 ovarian): 2.02 µM
TGI (A549 NSCLC): 5.91 µM
TGI (HL-60(TB) leukemia): > 100 µM
TGI (SF-539 CNS): 3.78 µM
TGI (SF-268 CNS): 14.4 µM
TGI (TK-10 renal): 3.35 µM
TGI (NCI-H226 lung): 1.69 µM
TGI (MALME-3M melanoma): 1.47 µM
TGI (786-0 renal): 0.368 µM
TGI (SNB-75 CNS): 5.87 µM
TGI (SW-620 colon): 0.583 µM
TGI (M14 melanoma): 0.0714 µM
TGI (HS 578T breast): 4.14 µM
TGI (UACC-62 melanoma): 2.07 µM
TGI (EKVX NSCLC): 2.58 µM
TGI (DU-145 prostate): 4.86 µM
TGI (UO-31 renal): 0.165 µM
TGI (MDA-MB-435): 1.4 µM
TGI (NCI-H522 lung): 0.19 µM
TGI (NCI-H23 lung): 1.81 µM
TGI (NCI/ADR-RES ovarian): > 49.4 µM
TGI (HCT-15 colon): 0.938 µM
TGI (OVCAR-3 ovarian): 0.311 µM
TGI (SNB-19 CNS): 2.21 µM
TGI (SF-295 CNS): 3.94 µM
TGI (MDA-N): 0.116 µM
TGI (SK-OV-3 ovarian): 9.12 µM
TGI (CCRF-CEM leukemia): 0.0234 µM
TGI (PC-3 prostate): 2.92 µM
TGI (SK-MEL-28 melanoma): 1.93 µM
TGI (RPMI-8226 leukemia): > 100 µM
TGI (NCI-H460 lung): 3.55 µM
TGI (U251 CNS): 1.74 µM
TGI (HCT-116 colon): 1.18 µM
TGI (COLO 205 colon): 0.696 µM
TGI (KM12 colon): 0.888 µM
TGI (IGROV1 ovarian): 1.36 µM
TGI (LOX IMVI melanoma): 0.344 µM
TGI (T-47D breast): 0.979 µM
TGI (SR leukemia): > 100 µM
TGI (K-562 leukemia): 0.125 µM
TGI (A498 renal): 3.49 µM
TGI (OVCAR-4 ovarian): 0.84 µM
TGI (HT29 colon): 0.805 µM
TGI (SK-MEL-5 melanoma): 0.301 µM
TGI (HOP-62 NSCLC): 1.07 µM
TGI (HOP-92 NSCLC): 0.749 µM

CCC/C(Cl)=N\OC(=O)Nc1ccc(F)cc1
TGI (UACC-257 melanoma): 30.5 µM
TGI (MCF7 breast): > 55 µM
TGI (SN12C renal): 31 µM
TGI (HCC-2998 colon): 32.4 µM
TGI (OVCAR-8 ovarian): > 60.9 µM
TGI (BT-549 breast): 28.4 µM
TGI (RXF 393 renal): 33.1 µM
TGI (ACHN renal): 24.7 µM
TGI (MDA-MB-231 breast): 33.1 µM
TGI (MOLT-4 leukemia): 14.9 µM
TGI (CAKI-1 renal): 3.47 µM
TGI (OVCAR-5 ovarian): 36 µM
TGI (A549 NSCLC): > 100 µM
TGI (HL-60(TB) leukemia): 3.86 µM
TGI (SF-268 CNS): > 65 µM
TGI (TK-10 renal): 29.2 µM
TGI (NCI-H226 lung): 43.4 µM
TGI (MALME-3M melanoma): 20.5 µM
TGI (786-0 renal): 17.5 µM
TGI (SNB-75 CNS): > 58 µM
TGI (SW-620 colon): 27.2 µM
TGI (M14 melanoma): 29.6 µM
TGI (HS 578T breast): > 86.4 µM
TGI (UACC-62 melanoma): 27.5 µM
TGI (EKVX NSCLC): 32.6 µM
TGI (DU-145 prostate): 31 µM
TGI (UO-31 renal): 31.5 µM
TGI (MDA-MB-435): 31.9 µM
TGI (NCI-H522 lung): 4.12 µM
TGI (NCI-H23 lung): 41.2 µM
TGI (NCI/ADR-RES ovarian): > 62.3 µM
TGI (HCT-15 colon): 19.3 µM
TGI (OVCAR-3 ovarian): 9.76 µM
TGI (SNB-19 CNS): 40.9 µM
TGI (SK-MEL-2 melanoma): 34.8 µM
TGI (SF-295 CNS): > 100 µM
TGI (MDA-N): 30.2 µM
TGI (SK-OV-3 ovarian): > 59.7 µM
TGI (CCRF-CEM leukemia): 3.85 µM
TGI (PC-3 prostate): 31.2 µM
TGI (SK-MEL-28 melanoma): 38.4 µM
TGI (RPMI-8226 leukemia): 15.6 µM
TGI (NCI-H460 lung): > 100 µM
TGI (U251 CNS): 34.8 µM
TGI (HCT-116 colon): 31.1 µM
TGI (COLO 205 colon): 8.97 µM
TGI (KM12 colon): 42.6 µM
TGI (IGROV1 ovarian): 33.3 µM
TGI (LOX IMVI melanoma): 9.97 µM
TGI (T-47D breast): 21.9 µM
TGI (SR leukemia): 5.49 µM
TGI (K-562 leukemia): 4 µM
TGI (A498 renal): 35.3 µM
TGI (OVCAR-4 ovarian): 30.8 µM
TGI (HT29 colon): > 69.6 µM
TGI (SK-MEL-5 melanoma): 26.7 µM
TGI (HOP-62 NSCLC): 38.2 µM
TGI (HOP-92 NSCLC): 16.5 µM
